Patent publication US20210070748A1, “INHIBITORS OF BRUTONS TYROSINE KINASE” (Pharmacyclics LLC, priority 2015, published 2021)

How the values were obtained:
Type in all cases: biochemical
[1] = target: SRC (Homo sapiens, UniProt P12931); experiment: Inhibition of a panel of kinases, in vitro HotSpot kinase assay: SRC; details: D-compounds panel data; 1 μM ATP
Method: (§1) The degree of inhibition of a panel of kinases is determined using the in vitro HotSpot kinase assay (purified enzymes, ^33P-ATP, an appropriate substrate and 1 μM ATP).

[2] = target: LCK (Homo sapiens, UniProt P06239); experiment: Inhibition of a panel of kinases, in vitro HotSpot kinase assay: LCK; details: D-compounds panel data; 1 μM ATP; read-out: IC50 LCK
Sequence of LCK (P06239 whole entry): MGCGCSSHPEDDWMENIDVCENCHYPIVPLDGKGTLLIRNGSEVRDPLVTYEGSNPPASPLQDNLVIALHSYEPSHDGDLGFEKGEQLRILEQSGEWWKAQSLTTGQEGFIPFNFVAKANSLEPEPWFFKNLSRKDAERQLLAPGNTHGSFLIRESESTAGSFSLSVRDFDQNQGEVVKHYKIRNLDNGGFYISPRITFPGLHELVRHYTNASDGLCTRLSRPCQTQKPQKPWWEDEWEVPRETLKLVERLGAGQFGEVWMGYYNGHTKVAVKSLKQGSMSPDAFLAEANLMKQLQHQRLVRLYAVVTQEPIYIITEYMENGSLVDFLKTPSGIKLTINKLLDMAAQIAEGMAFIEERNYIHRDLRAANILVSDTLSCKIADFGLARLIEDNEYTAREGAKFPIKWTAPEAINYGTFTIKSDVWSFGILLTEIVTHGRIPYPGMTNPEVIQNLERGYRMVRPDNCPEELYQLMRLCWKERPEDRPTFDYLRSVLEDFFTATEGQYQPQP

[3] = target: EGFR (Homo sapiens, UniProt P00533); experiment: Inhibition of a panel of kinases, in vitro HotSpot kinase assay: EGFR; details: D-compounds panel data; 1 μM ATP
Sequence of EGFR (P00533 25-1210): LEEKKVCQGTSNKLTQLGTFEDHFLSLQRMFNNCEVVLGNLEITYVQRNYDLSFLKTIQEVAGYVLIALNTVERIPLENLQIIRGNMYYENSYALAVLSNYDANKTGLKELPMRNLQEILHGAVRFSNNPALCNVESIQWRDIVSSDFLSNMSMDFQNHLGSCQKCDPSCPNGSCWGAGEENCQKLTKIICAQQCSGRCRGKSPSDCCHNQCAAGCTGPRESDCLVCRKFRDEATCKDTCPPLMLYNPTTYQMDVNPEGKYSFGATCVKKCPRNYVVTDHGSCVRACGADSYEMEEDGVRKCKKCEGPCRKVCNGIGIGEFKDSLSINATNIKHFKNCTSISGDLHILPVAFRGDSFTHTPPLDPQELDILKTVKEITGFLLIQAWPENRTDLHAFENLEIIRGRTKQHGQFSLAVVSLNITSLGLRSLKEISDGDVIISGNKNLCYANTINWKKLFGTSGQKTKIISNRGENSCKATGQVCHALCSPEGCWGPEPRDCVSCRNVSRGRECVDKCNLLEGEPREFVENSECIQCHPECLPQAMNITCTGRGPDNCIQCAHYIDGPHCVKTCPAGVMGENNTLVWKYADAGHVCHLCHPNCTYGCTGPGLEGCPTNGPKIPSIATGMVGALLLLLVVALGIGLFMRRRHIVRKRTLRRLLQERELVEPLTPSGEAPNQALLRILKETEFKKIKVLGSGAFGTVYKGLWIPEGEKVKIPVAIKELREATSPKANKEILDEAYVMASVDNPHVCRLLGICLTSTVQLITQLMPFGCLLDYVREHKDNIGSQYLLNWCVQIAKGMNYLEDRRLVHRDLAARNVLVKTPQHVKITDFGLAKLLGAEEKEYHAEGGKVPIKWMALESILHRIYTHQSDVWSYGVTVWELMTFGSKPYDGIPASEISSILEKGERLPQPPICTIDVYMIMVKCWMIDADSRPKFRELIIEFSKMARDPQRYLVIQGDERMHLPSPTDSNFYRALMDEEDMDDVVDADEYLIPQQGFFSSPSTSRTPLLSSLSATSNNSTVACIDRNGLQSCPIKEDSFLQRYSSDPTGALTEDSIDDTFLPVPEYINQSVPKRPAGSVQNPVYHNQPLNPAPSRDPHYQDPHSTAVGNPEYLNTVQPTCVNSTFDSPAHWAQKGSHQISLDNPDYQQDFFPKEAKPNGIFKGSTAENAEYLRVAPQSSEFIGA
Method: as §1

[4] = target: T1, BTK-WT (Homo sapiens, UniProt Q06187); experiment: Btk in vitro inhibitory activity (one of Method A TR-FRET, Method B electrophoretic mobility shift, Method C radiometric filter binding); details: D-compounds panel data; read-out: IC50 BTK-WT
T1 construct: purified from insect cells as a full-length construct containing an N-terminal 6X-His tag; His6 (N); made in house; host or cells: insect cells (baculovirus Sf21 in Method B)
T1 sequence (Q06187 whole entry): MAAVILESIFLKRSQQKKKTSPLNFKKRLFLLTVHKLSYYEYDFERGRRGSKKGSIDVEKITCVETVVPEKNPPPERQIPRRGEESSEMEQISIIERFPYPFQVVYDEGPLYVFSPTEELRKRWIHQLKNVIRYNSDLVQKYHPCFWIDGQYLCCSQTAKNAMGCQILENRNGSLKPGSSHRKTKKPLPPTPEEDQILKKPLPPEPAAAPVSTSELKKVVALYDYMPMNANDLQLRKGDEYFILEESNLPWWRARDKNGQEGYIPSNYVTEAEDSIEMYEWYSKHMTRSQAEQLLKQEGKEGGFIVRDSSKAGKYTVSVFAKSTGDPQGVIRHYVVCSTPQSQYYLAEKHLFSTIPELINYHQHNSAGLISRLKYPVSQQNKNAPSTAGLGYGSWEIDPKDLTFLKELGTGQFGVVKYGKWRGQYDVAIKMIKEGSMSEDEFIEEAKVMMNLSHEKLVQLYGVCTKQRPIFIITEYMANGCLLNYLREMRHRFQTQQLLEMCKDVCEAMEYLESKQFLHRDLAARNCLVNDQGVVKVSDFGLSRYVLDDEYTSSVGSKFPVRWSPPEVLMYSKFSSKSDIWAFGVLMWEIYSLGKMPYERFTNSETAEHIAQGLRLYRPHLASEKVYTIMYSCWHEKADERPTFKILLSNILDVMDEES

[5] = target: T2, ITK (Homo sapiens, UniProt Q08881); experiment: Inhibition of a panel of kinases, in vitro HotSpot kinase assay: ITK; details: D-compounds panel data; 1 μM ATP
T2 sequence (Q08881 1-620): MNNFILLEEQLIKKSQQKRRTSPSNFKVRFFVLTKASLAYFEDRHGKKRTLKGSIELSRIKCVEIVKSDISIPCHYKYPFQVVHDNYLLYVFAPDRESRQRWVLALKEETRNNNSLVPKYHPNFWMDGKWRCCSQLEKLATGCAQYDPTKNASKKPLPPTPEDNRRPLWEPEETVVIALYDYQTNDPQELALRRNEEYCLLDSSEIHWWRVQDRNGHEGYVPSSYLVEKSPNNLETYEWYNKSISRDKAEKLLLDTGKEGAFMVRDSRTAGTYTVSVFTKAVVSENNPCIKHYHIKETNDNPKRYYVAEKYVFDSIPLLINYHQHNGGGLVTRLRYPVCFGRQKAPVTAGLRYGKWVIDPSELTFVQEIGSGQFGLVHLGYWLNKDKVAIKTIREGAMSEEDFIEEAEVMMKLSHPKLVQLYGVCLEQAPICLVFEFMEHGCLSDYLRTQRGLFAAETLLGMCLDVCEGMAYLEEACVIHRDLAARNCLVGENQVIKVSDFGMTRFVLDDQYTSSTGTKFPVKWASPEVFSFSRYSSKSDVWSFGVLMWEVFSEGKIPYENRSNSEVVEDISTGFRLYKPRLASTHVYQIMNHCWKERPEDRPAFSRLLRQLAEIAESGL
Method: as §1

Sequence of SRC (P12931 whole entry): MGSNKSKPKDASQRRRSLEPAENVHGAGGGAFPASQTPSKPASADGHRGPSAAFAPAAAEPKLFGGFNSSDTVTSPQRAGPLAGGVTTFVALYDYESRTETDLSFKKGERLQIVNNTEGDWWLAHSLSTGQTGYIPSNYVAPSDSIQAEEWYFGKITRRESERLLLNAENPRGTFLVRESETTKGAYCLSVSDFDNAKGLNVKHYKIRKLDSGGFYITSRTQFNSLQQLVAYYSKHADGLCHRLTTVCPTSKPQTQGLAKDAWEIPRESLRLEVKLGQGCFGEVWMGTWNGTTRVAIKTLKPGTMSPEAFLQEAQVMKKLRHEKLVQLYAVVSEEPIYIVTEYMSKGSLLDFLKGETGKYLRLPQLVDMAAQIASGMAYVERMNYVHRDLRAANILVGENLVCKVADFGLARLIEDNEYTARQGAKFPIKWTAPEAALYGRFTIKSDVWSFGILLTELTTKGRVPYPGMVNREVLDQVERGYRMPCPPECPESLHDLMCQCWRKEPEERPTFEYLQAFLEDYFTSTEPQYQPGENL

SMILES	IC50 [1]	IC50 [2]	IC50 [3]	IC50 [4]	IC50 [5]
COC(C)(C)c1ccc(C(=O)N[C@@H]2CCCN(c3cnc(C(N)=O)c(Nc4cnn(C)c4)n3)[C@@H]2C)cc1 [Example D-161, 5-[(2R,3R)-3-[4-(2-methoxypropan-2-yl)benzamido]-2-methylpiperidin-1-yl]-3-[(1-methyl-1H-pyrazol-4-yl)amino]pyrazine-2-carboxamide]	10 to 100 nM	100 to 1000 nM	1000 to 10000 nM	≤ 10 nM	100 to 1000 nM
C[C@@H]1[C@H](NC(=O)N(C)C)CCCN1c1cnc(C(N)=O)c(Nc2cc(C3CCOCC3)ns2)n1 [Example D-162, 5-[(2R,3R)-3-[(dimethylcarbamoyl)amino]-2-methylpiperidin-1-yl]-3-{[3-(oxan-4-yl)-1,2-thiazol-5-yl]amino}pyrazine-2-carboxamide]	10 to 100 nM	10 to 100 nM	100 to 1000 nM	≤ 10 nM	100 to 1000 nM
C[C@@H]1[C@H](NC(=O)N(C)C)CCCN1c1cnc(C(N)=O)c(Nc2cc(C3CCN(C4CCCC4)CC3)ns2)n1 [Example D-163, 3-{[3-(1-cyclopentylpiperidin-4-yl)-1,2-thiazol-5-yl]amino}-5-[(2R,3R)-3-[(dimethylcarbamoyl)amino]-2-methylpiperidin-1-yl]pyrazine-2-carboxamide]	≤ 10 nM	< 10 nM	100 to 1000 nM	≤ 10 nM	10 to 100 nM
Cc1cc(Nc2nc(N3CCCC(c4ncc(-c5ccccc5)[nH]4)C3)cnc2C(N)=O)sn1 [Example D-164, 3-[(3-methyl-1,2-thiazol-5-yl)amino]-5-[3-(4-phenyl-3H-imidazol-2-yl)piperidin-1-yl]pyrazine-2-carboxamide]	100 to 1000 nM	100 to 1000 nM	100 to 1000 nM	10 to 100 nM	1000 to 10000 nM
CN1CCN(c2ccc(Nc3nc(N4CCC[C@@H](n5ccc6cc(C7CC7)ccc6c5=O)C4)cnc3C(N)=O)cc2)CC1 [Example D-165, 5-[(3R)-3-(6-cyclopropyl-1-oxo-1,2-dihydroisoquinolin-2-yl)piperidin-1-yl]-3-{[4-(4-methylpiperazin-1-yl)phenyl]amino}pyrazine-2-carboxamide]	100 to 1000 nM	100 to 1000 nM	> 10000 nM	≤ 10 nM	100 to 1000 nM
Cc1cc(Nc2nc(N3CCC[C@@H](n4ccc5cc(C6CC6)ccc5c4=O)C3)cnc2C(N)=O)sn1 [Example D-166, 5-[(3R)-3-(6-cyclopropyl-1-oxo-1,2-dihydroisoquinolin-2-yl)piperidin-1-yl]-3-[(3-methyl-1,2-thiazol-5-yl)amino]pyrazine-2-carboxamide]	> 10000 nM	> 10000 nM	> 10000 nM	≤ 10 nM	> 10000 nM
CN1CCN(Cc2ccc(Nc3nc(N4CCC[C@@H](n5ccc6cc(C7CC7)ccc6c5=O)C4)cnc3C(N)=O)cc2)CC1 [Example D-167, 5-[(3R)-3-(6-cyclopropyl-1-oxo-1,2-dihydroisoquinolin-2-yl)piperidin-1-yl]-3-({4-[(4-methylpiperazin-1-yl)methyl]phenyl}amino)pyrazine-2-carboxamide]	100 to 1000 nM	100 to 1000 nM	1000 to 10000 nM	≤ 10 nM	100 to 1000 nM
NC(=O)c1ncc(N2CCC[C@@H](n3ccc4cc(C5CC5)ccc4c3=O)C2)nc1Nc1ccc2ncccc2c1 [Example D-168, 5-[(3R)-3-(6-cyclopropyl-1-oxo-1,2-dihydroisoquinolin-2-yl)piperidin-1-yl]-3-[(quinolin-6-yl)amino]pyrazine-2-carboxamide]	> 10000 nM	> 10000 nM	> 10000 nM	100 to 1000 nM	> 10000 nM
